Among the data in ChEMBL document CHEMBL3351325, “Synthesis and biological evaluation of hydroxycinnamic acid hydrazide derivatives as inducer of caspase-3” (Eur J Med Chem, 2014) are IC50 and Activity values, retold here.

Structures are written as SMILES. Activity calls are given as the source filed them. The calls are words filed in the database; no cut-off is given here.

Data set [1] can be described thus: Antiproliferative activity against human H1299 cells after 24 hrs by MTT assay. It is filed as functional, cell-based. The conditions noted are these: NCI-H1299, 24 h. In general terms: Formazan colour is commonly taken as a measure of viable cells.
Data set [2] is described as follows: Antiproliferative activity against human NL20 cells after 24 hrs by MTT assay. The conditions noted are these: NL20, 24 h. Format: cell-based.
Another data set concerns MCF7. Briefly: Antiproliferative activity against human MCF7 cells after 24 hrs by MTT assay. It is filed as functional, cell-based. The settings on record: MCF7, 24 h.
A short description of data set [3]: Antiproliferative activity against human H184B5F5/M10 cells after 24 hrs by MTT assay. It is filed as functional, cell-based. The conditions noted are these: H184B5F5/M10, 24 h.
The nature of data set [4]: Cell cycle arrest in human H1299 cells assessed as accumulation at Sub-G1 phase at 1.5 uM after 12 hrs by flow cytometry (reference value: 5.3%). It is filed as functional, cell-based. The conditions noted are these: NCI-H1299. In general terms: In flow cytometry, cells or beads pass a laser one at a time.
Data set [5] in a line: Cell cycle arrest in human H1299 cells assessed as accumulation at Sub-G1 phase at 1.5 uM after 24 hrs by flow cytometry (reference value: 5.3%). It is filed as functional, cell-based. The conditions noted are these: NCI-H1299.
Data set [6] is described as follows: Cell cycle arrest in human H1299 cells assessed as reduction in G1 phase at 1.5 uM after 12 to 24 hrs by flow cytometry. The conditions noted are these: NCI-H1299. Format: functional, cell-based.
A short description of data set [7]: Cell cycle arrest in human H1299 cells assessed as accumulated at G2/M phase at 1.5 uM by flow cytometry. The conditions noted are these: NCI-H1299, TDE = time-dependent effect. It is filed as functional, cell-based.
Data set [8] in a line: Cell cycle arrest in human H1299 cells assessed as accumulated at G2/M phase at 1.5 uM after 12 hrs by flow cytometry (reference value: 5.4%). It is filed as functional, cell-based. The conditions noted are these: NCI-H1299.
A short description of data set [9]: Cell cycle arrest in human H1299 cells assessed as accumulated at G2/M phase at 1.5 uM after 24 hrs by flow cytometry (reference value: 5.4%). Format: functional, cell-based. The settings on record: NCI-H1299.
A short description of data set [10]: Cell cycle arrest in human NL20 cells assessed as accumulation at Sub-G1 phase at 1.5 uM after 12 hrs by flow cytometry (reference value: 4.6 %). It is filed as ADME, cell-based. The settings on record: nl20, 12 h.
The nature of data set [11]: Cell cycle arrest in human NL20 cells assessed as accumulation at Sub-G1 phase at 1.5 uM after 24 hrs by flow cytometry (reference value: 4.6 %). The settings on record: nl20, 24 h. It is filed as ADME, cell-based.
Data set [12] is described as follows: Cell cycle arrest in human NL20 cells assessed as accumulation at G2/M phase at 1.5 uM after 12 to 24 hrs by flow cytometry. It is filed as ADME, cell-based. The settings on record: nl20, 1.5 µM.
For data set [13], the system named is NCI-H1299. Put plainly: Induction of apoptosis in human H1299 cells assessed as change in morphology at 1.5 uM after 24 hrs using Acridine orange/ethidium bromide staining by fluorescence microscopy. It is filed as functional, cell-based.
The subject of data set [14] is NCI-H1299. Briefly: Induction of apoptosis in human H1299 cells assessed as caspase 3 protein expression after 24 hrs by Western blot analysis. Format: functional, cell-based. On the technique in general: In western blotting, separated proteins are transferred to a membrane and probed.

Regarding `COc1ccc(C(=O)NNC(=O)/C=C/c2ccc(O)c(O)c2)cc1`, the IC50 in data set [1] turned out to be 5.42 µM; in [2], 9.39 µM; in the data set on MCF7, 4.86 µM; in data set [3], 9.57 µM.
The matching figures for `COc1ccc(C(=O)NNC(=O)/C=C/c2ccc(O)cc2)cc1`: 6.64 µM, more than 10 µM, 6.02 µM and 8.44 µM.
For `COc1ccc(C(=O)NNC(=O)/C=C/c2ccc(O)c(OC)c2)cc1` the same measures were 5.42 µM, more than 10 µM, 5.62 µM and more than 10 µM.
As to `COc1ccc(C(=O)NNC(=O)/C=C/c2cc(OC)c(O)c(OC)c2)cc1`, the IC50 in data set [1] is 7.45 µM; in [2], 9.42 µM; in the data set on MCF7, 7.17 µM; in data set [3], 9.45 µM.
As to `COc1cc(/C=C/C(=O)NNC(=O)c2ccc(O)cc2)ccc1O`, the IC50 in data set [1] was 1.5 µM; in data set [2], more than 10 µM; in the data set on MCF7, 4.36 µM; in data set [3], more than 10 µM. The Activity in data set [4] is 8.9%; in data set [5], 12.3%; in data set [7], “tde”; in [8], 31.7%; in data set [9], 46.2%; in data set [10], 5.2%. Besides, the Activity in data set [11] was 4.9%; in [12] it was “Non-toxic”; with NCI-H1299 [14], “Dose-dependent effect”. Also, the outcome (in [6]; with NCI-H1299 [13]) was Active.
Consider `COc1cc(/C=C/C(=O)NNC(=O)c2ccccc2)cc(OC)c1O`, for which the IC50 (in data set [1]; in data set [2]; in the data set with MCF7; in [3]) was more than 10 µM in each case.
Take `O=C(/C=C/c1ccc(O)cc1)NNC(=O)c1ccc(O)cc1`: the IC50 in data set [1] is 5.47 µM; in [2] it was 8.62 µM; in the data set with MCF7, 8.8 µM; in data set [3] it was more than 10 µM.
As to `COc1cc(/C=C/C(=O)NNC(=O)c2ccccc2)ccc1O`, the half-inhibitory concentration (IC50) in data set [1] amounted to 6.16 µM; in data set [2] it was 9.55 µM; in the data set with MCF7 it was 5.22 µM; in data set [3], 9.17 µM.
On to `O=C(/C=C/c1ccc(O)c(O)c1)NNC(=O)c1ccccc1`, for which the IC50 was 6.77 µM in data set [1], 8.85 µM in data set [2], 4.75 µM in the data set on MCF7 and 8.12 µM in [3].
With `CC[C@@]1(O)C(=O)OCc2c1cc1n(c2=O)Cc2cc3c(CN(C)C)c(O)ccc3nc2-1` [TOPOTECAN], the IC50 in data set [1] is 4.18 µM; in [2], more than 10 µM; with MCF7, 3.46 µM; in data set [3] it was more than 10 µM.
`COc1cc(/C=C/C(=O)NNC(=O)c2ccc(O)cc2)cc(OC)c1O`: the IC50 is 8.71 µM in [1], more than 10 µM in data set [2], 9.32 µM in the data set with MCF7 and more than 10 µM in data set [3].
Turning to `O=C(/C=C/c1ccc(O)cc1)NNC(=O)c1ccccc1`, the IC50 in data set [1] is 7.36 µM; in data set [2], 9.75 µM; with MCF7, 7.39 µM; in data set [3], 9.32 µM.
Regarding `O=C(/C=C/c1ccc(O)c(O)c1)NNC(=O)c1ccc(O)cc1`, the IC50 was 4.48 µM in data set [1], more than 10 µM in data set [2], 6.05 µM with MCF7 and 8.68 µM in [3].

A word on the IC50: it is the concentration that gives 50% inhibition. Read a low IC50 as inhibition by little substance.
